Measured values from ChEMBL document CHEMBL1155491, “Acylurea connected straight chain hydroxamates as novel histone deacetylase inhibitors: Synthesis, SAR, and in vivo antitumor activity” (Bioorg Med Chem Lett, 2010).
Converted amounts (≈) assume the structure as drawn. The source made the active and inactive calls. The calls are words filed in the database; no cut-off is given here.

Experiments:
[1] = biological target: T1, Histone deacetylase 8 (Homo sapiens, UniProt Q9BY41); experiment: Inhibition of HDAC8
T1 sequence (Q9BY41 whole entry): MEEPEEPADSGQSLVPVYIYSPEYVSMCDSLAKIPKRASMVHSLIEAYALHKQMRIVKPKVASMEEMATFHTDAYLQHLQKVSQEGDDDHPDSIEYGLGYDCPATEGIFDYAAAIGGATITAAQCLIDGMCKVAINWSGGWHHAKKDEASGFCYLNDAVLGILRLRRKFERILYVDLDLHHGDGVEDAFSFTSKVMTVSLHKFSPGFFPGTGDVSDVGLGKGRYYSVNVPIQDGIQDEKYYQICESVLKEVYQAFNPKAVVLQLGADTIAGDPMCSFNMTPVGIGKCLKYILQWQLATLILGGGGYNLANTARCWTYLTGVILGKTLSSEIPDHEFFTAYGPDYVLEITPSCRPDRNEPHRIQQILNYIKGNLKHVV

[2] = biological target: T2, Histone deacetylase 11 (Homo sapiens, UniProt Q96DB2); experiment: Inhibition of HDAC11
T2 sequence (Q96DB2 whole entry): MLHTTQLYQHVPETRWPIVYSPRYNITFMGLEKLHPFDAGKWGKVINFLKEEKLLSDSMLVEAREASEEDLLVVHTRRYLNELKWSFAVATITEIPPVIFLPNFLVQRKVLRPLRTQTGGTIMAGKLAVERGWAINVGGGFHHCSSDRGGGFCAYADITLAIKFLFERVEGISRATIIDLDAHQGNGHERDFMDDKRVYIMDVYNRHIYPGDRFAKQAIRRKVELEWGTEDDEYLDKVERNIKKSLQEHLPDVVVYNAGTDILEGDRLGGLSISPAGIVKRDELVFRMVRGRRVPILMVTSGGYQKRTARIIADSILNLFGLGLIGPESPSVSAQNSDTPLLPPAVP

[3] = Thermodynamic solubility at pH 7.4; format: physicochemical; details: buffer, read-out: Therm_solubility
[4] = test system: Ramos; experiment: Antiproliferative activity against human Ramos cells; format: functional, cell-based
[5] = biological target: Histone deacetylase 1 (Homo sapiens, UniProt Q13547); experiment: Inhibition of HDAC1 in human COLO205 cells assessed as induction of histone H3 acetylation at 10 uM by Western-immuno blotting; format: cell-based; details: COLO 205
Histone deacetylase 1, sequence (Q13547 whole entry): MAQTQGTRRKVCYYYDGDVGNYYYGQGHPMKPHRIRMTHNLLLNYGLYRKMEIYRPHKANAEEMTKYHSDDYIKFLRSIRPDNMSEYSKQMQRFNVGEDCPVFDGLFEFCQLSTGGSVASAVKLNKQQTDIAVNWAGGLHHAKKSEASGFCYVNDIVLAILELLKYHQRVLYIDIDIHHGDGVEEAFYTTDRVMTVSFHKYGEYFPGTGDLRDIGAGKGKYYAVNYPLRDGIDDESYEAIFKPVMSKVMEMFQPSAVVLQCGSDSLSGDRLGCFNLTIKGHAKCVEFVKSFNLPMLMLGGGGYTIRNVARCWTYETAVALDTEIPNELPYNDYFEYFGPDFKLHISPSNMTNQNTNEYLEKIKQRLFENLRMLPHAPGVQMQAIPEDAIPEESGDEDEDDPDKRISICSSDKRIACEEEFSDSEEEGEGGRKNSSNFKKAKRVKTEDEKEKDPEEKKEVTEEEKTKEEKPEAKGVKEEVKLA

[6] = Elimination half life in mouse at 10 mg/kg, iv; format: ADME, organism-based; parameters: dose 10 mg/kg, route intravenous; details: in vivo, read-out: beta t1/2 (converted)
[7] = Cmax in mouse plasma at 50 mg/kg, po; format: ADME, organism-based; parameters: dose 50 mg/kg, route oral

O=C(CCCCCNC(=O)NC(=O)c1ccccc1)NO
IC50 [1]: 608 nM | Ki [1]: 252 nM | Ki [2]: 39 nM | solubility thermodynamic [3]: 526 µg/mL (≈ 1790 µM) | IC50 [4]: 460 nM | Activity [5]: Active | half-life [6]: 1.54 h | Cmax [7]: 22.4 µM
